Laboratory results published in ChEMBL document CHEMBL1201862, “PubChem BioAssay data set” (2004).
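Where inhibition never reached the appropriate level, the endpoint shown equals the highest concentration tested. Otherwise, values were interpolated linearly from a five-concentration, 48-hour dose response in 96-well plates. GI50: concentration for 50% inhibition of growth.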 Calls of active or inactive are those of the source. Rule as the data show it: active = GI50 up to about 1.1 µM and inactive = higher.

Assays:
Test in all cases: NCI anticancer screen, dose series, 48 h
CCRF-CEM = system: CCRF-CEM
EKVX = system: EKVX
HCC 2998 = system: HCC 2998
HOP-62 = system: HOP-62
HOP-92 = system: HOP-92
K562 = system: K562
NCI-H23 = system: NCI-H23
NCI-H522 = system: NCI-H522
OVCAR-4 = system: OVCAR-4
OVCAR-8 = system: OVCAR-8
RXF 393 = system: RXF 393
SF-268 = system: SF-268
SK-MEL-28 = system: SK-MEL-28
SK-MEL-2 = system: SK-MEL-2
SK-OV-3 = system: SK-OV-3
SN12C = system: SN12C
SNB-75 = system: SNB-75
SW-620 = system: SW-620
TK-10 = system: TK-10
UACC-257 = system: UACC-257

Measured: GI50

Oc1ccc(/C=N/c2ccccc2O)cc1
inactive: CCRF-CEM 44.7 µM | EKVX 48 µM | HCC 2998 45.3 µM | HOP-62 67 µM | HOP-92 > 100 µM | K562 24.7 µM | NCI-H23 30.3 µM | NCI-H522 29.3 µM | OVCAR-4 > 100 µM | OVCAR-8 39.4 µM | RXF 393 > 100 µM | SF-268 96.6 µM | SK-MEL-28 > 100 µM | SK-MEL-2 21.9 µM | SK-OV-3 > 100 µM | SN12C > 100 µM | SNB-75 > 100 µM | SW-620 31.3 µM | TK-10 59.7 µM | UACC-257 22.3 µM

Cc1c(CCO)c(O)n2c(nc3ccccc32)c1C#N
inactive: CCRF-CEM 29.4 µM | EKVX > 100 µM | HCC 2998 > 100 µM | HOP-62 > 100 µM | HOP-92 33.1 µM | K562 99.5 µM | NCI-H23 53.8 µM | NCI-H522 34.7 µM | OVCAR-4 39.4 µM | OVCAR-8 83.9 µM | RXF 393 > 100 µM | SF-268 > 100 µM | SK-MEL-28 > 100 µM | SK-MEL-2 91.6 µM | SK-OV-3 > 100 µM | SNB-75 > 100 µM | SW-620 54.1 µM | TK-10 > 100 µM | UACC-257 > 100 µM

COc1ccc(/C=C/c2cc(O)cc(OC3OC(CO)C(O)C(O)C3O)c2)cc1O (stereo not drawn)
inactive: CCRF-CEM 82.4 µM | EKVX > 100 µM | HCC 2998 > 100 µM | HOP-62 37 µM | HOP-92 > 100 µM | K562 45.1 µM | NCI-H522 44 µM | OVCAR-4 > 100 µM | OVCAR-8 > 100 µM | RXF 393 > 100 µM | SF-268 42.6 µM | SK-MEL-28 > 100 µM | SK-MEL-2 > 100 µM | SK-OV-3 > 100 µM | SN12C > 100 µM | SNB-75 > 100 µM | SW-620 > 100 µM | TK-10 > 100 µM | UACC-257 > 100 µM

CC(=O)OCCOCn1cnc2c(Cl)nc(Cl)nc21
inactive: CCRF-CEM 6.37 µM | EKVX 2.84 µM | HCC 2998 12.2 µM | HOP-62 17.7 µM | HOP-92 1.67 µM | K562 2.44 µM | NCI-H23 18.7 µM | NCI-H522 2.05 µM | OVCAR-4 19.1 µM | OVCAR-8 20.8 µM | RXF 393 > 10 µM | SF-268 17.9 µM | SK-MEL-2 22.3 µM | SK-OV-3 > 10 µM | SN12C 18.5 µM | SNB-75 21.5 µM | SW-620 12.4 µM | TK-10 39.4 µM | UACC-257 17.1 µM

O=S(=O)(O)c1cc(/N=N/c2c(O)ccc3ccccc23)cc2c(S(=O)(=O)O)cccc12
inactive: CCRF-CEM > 100 µM | EKVX > 100 µM | HCC 2998 > 100 µM | HOP-62 > 100 µM | HOP-92 > 100 µM | K562 > 100 µM | NCI-H522 > 100 µM | OVCAR-4 > 100 µM | OVCAR-8 > 100 µM | RXF 393 > 100 µM | SF-268 > 100 µM | SK-MEL-28 > 100 µM | SK-MEL-2 > 100 µM | SK-OV-3 > 100 µM | SNB-75 > 100 µM | SW-620 > 100 µM | TK-10 > 100 µM | UACC-257 > 100 µM

O=C(Cc1nc2ccccc2s1)C(=O)Nc1cccc(C(F)(F)F)c1
inactive: CCRF-CEM > 100 µM | EKVX > 100 µM | HCC 2998 > 100 µM | HOP-62 > 100 µM | HOP-92 > 100 µM | NCI-H23 > 100 µM | NCI-H522 > 100 µM | OVCAR-4 > 100 µM | OVCAR-8 > 100 µM | RXF 393 > 100 µM | SF-268 > 100 µM | SK-MEL-28 > 100 µM | SK-MEL-2 > 100 µM | SK-OV-3 > 100 µM | SN12C > 100 µM | SNB-75 > 100 µM | SW-620 > 100 µM | TK-10 > 100 µM | UACC-257 > 100 µM

CC(C)(C)O/N=C/c1cc(NC(=S)c2ccsc2)ccc1Cl
inactive: CCRF-CEM 10.7 µM | EKVX 11.9 µM | HCC 2998 14.5 µM | HOP-62 16 µM | HOP-92 19.1 µM | NCI-H23 7.41 µM | NCI-H522 13.3 µM | OVCAR-4 14.6 µM | OVCAR-8 13.1 µM | RXF 393 14.1 µM | SF-268 16 µM | SK-MEL-28 16.7 µM | SK-MEL-2 16 µM | SK-OV-3 18.7 µM | SN12C 17.1 µM | SNB-75 23.6 µM | SW-620 17.2 µM | TK-10 13.7 µM | UACC-257 12.6 µM

Cc1ccc2c(c1)C(=O)C1(C2)Cc2ccc(C)cc2C1=O
inactive: CCRF-CEM > 100 µM | EKVX > 100 µM | HCC 2998 > 100 µM | HOP-62 > 100 µM | HOP-92 > 100 µM | K562 > 100 µM | NCI-H23 > 100 µM | NCI-H522 > 100 µM | OVCAR-4 > 100 µM | OVCAR-8 > 100 µM | RXF 393 > 100 µM | SF-268 > 100 µM | SK-MEL-2 87.3 µM | SK-OV-3 > 100 µM | SNB-75 > 100 µM | SW-620 > 100 µM | TK-10 > 100 µM | UACC-257 > 100 µM

O=C(CC1C(=O)Nc2ccccc2[S+]1[O-])Nc1ccccc1 (stereo not drawn)
inactive: CCRF-CEM > 100 µM | EKVX > 100 µM | HCC 2998 > 100 µM | HOP-62 > 100 µM | HOP-92 53.8 µM | NCI-H23 > 100 µM | NCI-H522 > 100 µM | OVCAR-4 > 100 µM | OVCAR-8 36.4 µM | RXF 393 19.8 µM | SF-268 > 100 µM | SK-MEL-28 > 100 µM | SK-MEL-2 > 100 µM | SK-OV-3 26.9 µM | SN12C > 100 µM | SNB-75 29.6 µM | SW-620 > 100 µM | TK-10 > 100 µM | UACC-257 > 100 µM

COC(=O)C(=O)Nc1cc2c3c(c1)Oc1cccc4c1C3(C)c1c(cccc1O2)O4
inactive: CCRF-CEM 1.26 µM | EKVX > 82.6 µM | HCC 2998 > 59.2 µM | HOP-62 > 100 µM | HOP-92 72.6 µM | NCI-H23 > 100 µM | NCI-H522 > 86.3 µM | OVCAR-4 > 100 µM | RXF 393 18.7 µM | SF-268 > 100 µM | SK-MEL-28 > 100 µM | SK-MEL-2 > 87.7 µM | SK-OV-3 > 100 µM | SN12C > 69.5 µM | SNB-75 > 100 µM | SW-620 > 100 µM | TK-10 99.5 µM | UACC-257 > 100 µM
